Test results as given in patent publication EP0765662A1, “HIV GROWTH INHIBITORY COMPOSITION” (Kochi, Mutsuyuki, priority 1994, dated 1995).
Where a name gives a salt, the structure may show the parent alone. Read-outs that look alike come from different tables or passages of the source.

Legend:
[1] = Cytotoxicity of SBA, trypan blue dye-exclusion, A3.01 cells; format: cell-based; conditions: human, read-out: Rate of survival of the cells (%)
Excerpt: It is known that stimulation of HIV gene by TPA and tumor necrosis factor (TNF) can activate the HIV gene which is latent as the HIV-provirus within the T-cells as infected with HIV and said stimulation can thus strongly induce the progresses of sprouting and release of the viral particles of HIV. It is considered that said activation of the HIV gene for the occurrence or developement of HIV virus would be caused by such an oxidation stress which is brought about within the host cells by any stimulation given from outside the host cells as above-mentioned. Further, such discoveries and observations have been reported that NFkB, which is a nuclear factor wthin the cells, can play important part in the proliferation of HIV virus, and that the oxidation-reduction status of the NFkB is important for the activation of this factor NFkB, and so on. […] (a) Test of examining cytotoxicity of SBA against various kinds of T-cells A3.01 cells (HAT-susceptible CEM cell strain), A3.01 cells as infected with HIV, and the above-mentioned U1 cells were cultivated, respectively, in an improved RPM1-1640 media containing SBA added at different concentrations. After the cultivation, the number of the cells under test which still survived was determined under a polarizing microscope by a trypan blue dye-exclusion method.

HIV-1 (HTLV-IIIB strain) = assay: Occurrence of HIV-1 positive cells in U1 cells with or without TPA stimulation (indirect fluorescent antibody technique); format: cell-based; conditions: for Rate (%) of occurrence of HIV-1 positive cells: U1 cells
Description: As the cell to be tested here for estimation of the occurrence of HIV in this Example, there were used such U1 cells which had been prepared by introducing 2 copies of the gene DNA of HIV-1 (HTLV-IIIB strain) into U937 cells (human monocytic blast-like cells, namely one sort of human T-cells). The U1 cell is an HIV potentially-infected T-cell wherein the HIV-1 gene is present merely as provirus.
The above-mentioned U1 cells were seeded and incubated in Costar 48-well-plates under such different conditions as indicated below. Thus, the U1 cells were seeded in a culture medium and were incubated in the presence of 5,6-O-benzylidene-L-ascorbic acid mono-sodium salt (hereinafter abbreviated as SBA) as incorporated at different concentrations by addition of SBA to the culture medium, or the U1 cells were incubated in the absence of SBA. The incubation of these U1 cells was further effected with such both two types of those U1 cells, namely with such one type of U1 cells which had been stimulated further by addition of TPA at various concentrations thereto, and with such another type of U1 cells which had not been stimulated by TPA.
When the U1 cells as stimulated by the addition of TPA were incubated, replication of the viral particles of HIV took place in considerable numbers of the U1 cells, resulting in the production of the HIV antigen within the cells, so that said cells thus became such HIV-positive cells which could sprout and release the viral particles of HIV therefrom. This replication of the viral particles of HIV can be detected by an indirect fluorescent antibody technique as illustrated below.
The U1 cells were thus incubated under the different conditions as explained in the above, including such a case where both SBA and TPA were not added; such a case where SBA was added, but TPA was not added; such a case where SBA was not added, but TPA was added; and such as case where both SBA and TPA were added, respectively. Then, the replication of the viral particles of HIV within the U1 cells, and the release of the viral particles of HIV from the U1 cells so incubated under the different conditions as above mentioned were detected by means of the indirect fluorescence technique in which there were employed a mouse monoclonal antibody having an anti-HIV-1 activity as a primary antibody and also employed an FITC-rabbit-originated […] as a secondary antibody. The number of the U1 cells which could be detected as the HIV-positive cells was calculated in term of percentage (%) on the basis of the total numbers of the U1 cells as subjected to the test, and it was expressed as the rate (%) of occurrence or appearance of the HIV-1 positive cells.

ICR strain mice = assay: Evaluation of toxicity (intravenous, mice); format: in vivo; conditions: intravenously, 1000 mg per kg body weight, male, 5 mice in each group
Description: SBA in the form of a solution in a physiological saline (containing […]) was administered intravenously to ICR strain mice (5 week-aged, male, 5 mice in each group) at a dosage of 1000 mg per kg of the body weight of mice tested.

O=C1O[C@H]([C@@H]2COC(c3ccccc3)O2)C(O)=C1O (stereo partly drawn) [SBA, 5,6-O-benzylidene-L-ascorbic acid mono-sodium salt]
viability ([1]; SBA 100 µg/ml): 97%
viability ([1]; SBA 1000 µg/ml): ~70%
IC50 (HIV-1 (HTLV-IIIB strain); Human immunodeficiency virus 1, IIIB, U1 cells incubated in the presence of TPA, read-out: concentration of SBA required to achieve 50% inhibition of the replication of the HIV viral particles): ~400 µg/mL
Rate (%) of occurrence of HIV-1 positive cells (HIV-1 (HTLV-IIIB strain); SBA 25 µg/ml, TPA (1 ng/ml) was added): 26%
Rate (%) of occurrence of HIV-1 positive cells (HIV-1 (HTLV-IIIB strain); SBA 25 µg/ml, TPA was not added): 3%
Rate (%) of occurrence of HIV-1 positive cells (HIV-1 (HTLV-IIIB strain); SBA 50 µg/ml, TPA (1 ng/ml) was added): 21%
Rate (%) of occurrence of HIV-1 positive cells (HIV-1 (HTLV-IIIB strain); SBA 50 µg/ml, TPA was not added): 2%
Rate (%) of occurrence of HIV-1 positive cells (HIV-1 (HTLV-IIIB strain); SBA 100 µg/ml, TPA (1 ng/ml) was added): 16%
Rate (%) of occurrence of HIV-1 positive cells (HIV-1 (HTLV-IIIB strain); SBA 100 µg/ml, TPA was not added): 2%
Rate (%) of occurrence of HIV-1 positive cells (HIV-1 (HTLV-IIIB strain); SBA 200 µg/ml, TPA (1 ng/ml) was added): 14%
Rate (%) of occurrence of HIV-1 positive cells (HIV-1 (HTLV-IIIB strain); SBA 200 µg/ml, TPA was not added): 3%
Rate (%) of occurrence of HIV-1 positive cells (HIV-1 (HTLV-IIIB strain); SBA 400 µg/ml, TPA (1 ng/ml) was added): 12%
Rate (%) of occurrence of HIV-1 positive cells (HIV-1 (HTLV-IIIB strain); SBA 400 µg/ml, TPA was not added): 3%
Rate (%) of occurrence of HIV-1 positive cells (HIV-1 (HTLV-IIIB strain); SBA 800 µg/ml, TPA (1 ng/ml) was added): 8%
Rate (%) of occurrence of HIV-1 positive cells (HIV-1 (HTLV-IIIB strain); SBA 800 µg/ml, TPA was not added): 4%
mortality (ICR strain mice): None of the mice thus treated died
